Measurements published in PubChem BioAssay (NCI).
Values joined by “and” are separate entries in the source; they are usually repeats but may differ in a detail not shown here. Equal values may be shown once.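 In this assay, cells in 96-well plates receive the compound at five concentrations for 48 hours. Endpoints are linearly interpolated between the surrounding concentrations. GI50: concentration for 50% inhibition of growth. At the TGI there is no net growth.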

How the values were obtained:
Assay in all cases: NCI-60 cell line screen, 48 h
KM12 colon = system: KM12 colon
CAKI-1 renal = system: CAKI-1 renal
SNB-19 CNS = system: SNB-19 CNS
HT29 colon = system: HT29 colon
SW-620 colon = system: SW-620 colon
COLO 205 colon = system: COLO 205 colon
OVCAR-3 ovarian = system: OVCAR-3 ovarian
NCI-H226 lung = system: NCI-H226 lung
PC-3 prostate = system: PC-3 prostate
NCI/ADR-RES ovarian = system: NCI/ADR-RES ovarian

SMILES | TGI (KM12 colon) | TGI (CAKI-1 renal) [µM] | TGI (SNB-19 CNS) [µM] | TGI (HT29 colon) | TGI (SW-620 colon) | TGI (COLO 205 colon) | TGI (OVCAR-3 ovarian) | TGI (NCI-H226 lung) | GI50 (KM12 colon) [µM] | GI50 (SNB-19 CNS) | GI50 (HT29 colon) [µM] | GI50 (SW-620 colon) [µM] | TGI (PC-3 prostate) [µM] | GI50 (OVCAR-3 ovarian) | GI50 (NCI-H226 lung) | TGI (NCI/ADR-RES ovarian) [µM] | GI50 (CAKI-1 renal) [µM] | GI50 (PC-3 prostate) [µM] | GI50 (COLO 205 colon) [µM] | GI50 (NCI/ADR-RES ovarian) [µM]
Cc1nc(Nc2ccccc2)sc1C(=O)CC(=O)C(=O)NC12CC3CC(CC(C3)C1)C2 | > 100 µM | > 100 | > 100 | > 100 µM | > 100 µM | > 100 µM | > 100 µM | > 100 µM |  |  |  |  |  |  |  |  |  |  |  | 
CC(=O)ON(C(C)=O)C1C(COC(c2ccccc2)(c2ccccc2)c2ccccc2)OC2OC3(CCCC3)OC21 (configuration not stated) | > 100 µM | > 100 | > 100 | > 100 µM | > 100 µM | > 100 µM | > 100 µM | > 100 µM |  |  |  |  |  |  |  |  |  |  |  | 
COc1ccc(/C=C\c2cc(OC)c(OC)c(OC)c2)c(O)c1O | 7.42 µM and 25.4 µM |  | 85.3 | 36.1 µM and 103 µM | 16.9 µM and 49.9 µM | 30.1 µM and 90.2 µM | 6.47 µM and 0.77 µM | 1.69 µM and 1.62 µM | 0.0568 | 0.0517 µM and 0.05 µM | 20.1 | 0.0715 | 36.1 | 0.0695 µM and 0.0832 µM | 0.297 µM and 0.05 µM |  |  |  |  | 
C#CCN(N=O)C(=O)NCCCC(NC(C)=O)C(=O)NCc1ccccc1 (configuration not stated) | > 100 µM | > 100 | > 100 | > 100 µM | > 100 µM | > 100 µM | > 100 µM | > 100 µM |  |  |  |  |  |  |  |  |  |  |  | 
NNC(=S)Nc1cccc(Cl)c1 | > 100 µM | > 100 | > 100 | > 100 µM | > 100 µM | > 100 µM | 92.3 µM |  |  |  |  |  | > 100 |  |  | > 100 |  |  |  | 
O=C(O)CCSC(=S)Nc1cccc(F)c1 | > 100 µM | > 100 | > 100 | > 100 µM | > 100 µM | > 100 µM | > 100 µM | > 100 µM |  |  |  |  |  |  |  |  |  |  |  | 
O=C1[C@H](Cl)[C@H]2c3cc4ccccc4nc3Oc3ccccc3N12 | > 100 µM | > 100 | > 100 | > 100 µM | > 100 µM | > 100 µM | > 100 µM | > 100 µM |  |  |  |  |  |  |  |  |  |  |  | 
Cc1ccc(NC(=O)CC/C(CC(=O)C(C)(C)C)=N\Nc2ccc([N+](=O)[O-])cc2[N+](=O)[O-])cc1C | > 100 µM |  | > 100 | > 100 µM | > 100 µM | > 100 µM |  | > 100 µM |  |  |  |  |  |  |  |  |  |  |  | 
COc1cc2c(cc1OC)c1c(OC)c(OC)cc3c1c1c2sc(=S)n1CC3 | > 100 µM | > 100 | > 100 | > 100 µM | > 100 µM | > 100 µM | > 100 µM | > 100 µM |  |  |  |  |  |  |  |  |  |  |  | 
CC(=O)O/N=C(Cl)/C(Cl)=N/OC(C)=O | > 100 µM | > 100 | > 100 | > 100 µM | > 100 µM |  |  | > 100 µM |  |  |  |  |  |  |  |  |  |  |  | 
O=C(O)CCSC(=O)Nc1ccccc1Cl | > 100 µM | > 100 | > 100 | > 100 µM | > 100 µM | > 100 µM | > 100 µM | > 100 µM |  |  |  |  |  |  |  |  |  |  |  | 
CCOC(=O)NC(=O)c1cn(CCN2CCNCC2)c(=O)[nH]c1=O | > 100 µM | > 100 | > 100 | > 100 µM | > 100 µM | > 100 µM | > 100 µM | > 100 µM |  |  |  |  |  |  |  |  |  |  |  | 
Nc1ccc2c(c1)Oc1c(F)c(F)cc3c(=O)c(C(=O)O)cn-2c13 | > 100 µM | > 100 | > 100 | > 100 µM | > 100 µM | > 100 µM | 96.6 µM |  |  |  |  |  |  |  |  |  |  |  |  | 
COc1ccc(CNc2cnc3cc(N)cc(N)c3n2)cc1 | 67.6 µM | 68.6 | > 100 | > 100 µM | 50.4 µM | > 100 µM | > 100 µM |  | 23.5 | 52.3 µM | 42 | 23.5 | > 100 | 24.5 µM |  | 76.2 | 28.9 | 34.2 | 33.6 | 25.5
Cc1ccc(/C=C(\C#N)c2ccccc2)cc1 | > 100 µM | > 100 |  | > 100 µM | > 100 µM | > 100 µM | > 100 µM | > 100 µM |  |  |  |  |  |  |  |  |  |  |  | 
COc1ccc(C[C@H](N)C(=O)N2C[C@@H](CO)C[C@@H](n3cnc4c(N(C)C)ncnc43)C2)cc1 | > 100 µM | > 100 | > 100 | > 100 µM | > 100 µM |  | > 100 µM |  |  |  |  |  |  |  |  |  |  |  |  | 
O=C(NN1C(=O)CSC12CCCC2)C(O)c1ccccc1 (configuration not stated) | > 100 µM | > 100 | > 100 | > 100 µM | > 100 µM | > 100 µM | > 100 µM | > 100 µM | > 100 | > 100 µM | > 100 | > 100 | > 100 | > 100 µM | > 100 µM |  | > 100 | > 100 | > 100 | 
C=C1C(=O)OC2CC3(C)CCCC(C)C3=CC12 (configuration not stated) | 25.1 µM | 9.27 | 25.8 | 14.2 µM | 6.13 µM | 2.56 µM |  | 30.3 µM |  |  |  |  | 39.2 |  |  | 56.7 |  |  |  | 
CC(C)CCC(=O)[C@@H](C)[C@H]1[C@@H](OC2OCC(O)C(O)C2NS(C)(=O)=O)C[C@H]2[C@@H]3CC=C4C[C@@H](O)CC[C@]4(C)[C@H]3CC[C@]12C (some centres not stated) | 11 µM | 5.56 | 6.77 | 12.5 µM | 6.02 µM | 5.92 µM | 10.3 µM |  | 2.77 | 1.34 µM | 3.02 | 1.54 | 4.16 | 2.72 µM |  | > 40 | 1.16 | 0.982 | 1.42 | 9.82
CC(=N)N(C)O | > 100 µM |  |  | > 100 µM |  | 33.2 µM | > 100 µM | > 100 µM |  |  |  |  |  |  |  |  |  |  |  | 
N#Cc1cc(NC(=O)c2ccccc2)c(=O)n2c1[nH]c1ccccc12 | > 100 µM | > 100 | 74.7 | > 100 µM | > 100 µM | > 100 µM | 80.7 µM |  |  |  |  |  |  |  |  |  |  |  |  | 
CC1=C2[C@H](c3ccccc3)C3C=CC2(c2ccccc23)N(C(=O)C(c2ccccc2)c2ccccc2)C1=O (some centres not stated) | > 100 µM | > 100 | > 100 | > 100 µM | > 100 µM | > 100 µM | > 100 µM |  |  |  |  |  |  |  |  |  |  |  |  | 
CN(C)CCC1(C2=CCCC2)CC/C(=C\c2ccccc2Cl)C1=O (configuration not stated) | 27.3 µM |  | 27.8 | 20.7 µM | 25.2 µM | 41 µM | 28.9 µM |  |  |  |  |  |  |  |  |  |  |  |  | 
